In ChEMBL document CHEMBL1157539, “Thousands of chemical starting points for antimalarial lead identification” (Nature, 2010):

These compounds were tested on Plasmodium falciparum (assay: GSK_TCMDC: Inhibition of Plasmodium falciparum 3D7 in whole erythrocytes, using parasite LDH activity as an index of growth.). Settings: Plasmodium falciparum, 3D7.
Type: functional, organism-based
`CCN(CC)CCN(Cc1ccc(-c2ccc(C(F)(F)F)cc2)cc1)C(=O)Cn1c(CCc2ccc(F)c(F)c2)cc(=O)c2ccccc21` showed an XC50 of 890 nM. `Oc1ccccc1CN1CCC(CCOC(c2ccccc2)c2ccc(Cl)cc2)CC1` (configuration not stated) showed an XC50 of 743 nM. `COc1ccc(NS(=O)(=O)c2ccccc2Br)cc1N1CCN(C)CC1` showed an XC50 of 967 nM. In the case of `COc1cc(Br)ccc1N1CCN(CCCCNC(=O)c2ccc(NC(=O)c3ccc(Cl)cc3)cc2)CC1`, the XC50 was 758 nM. Work on `CN1CCC[C@@H](Oc2cc3c(cc2Br)CCN3C(=O)Nc2ccc(-c3ccncc3)c(Cl)c2)C1` yielded an XC50 of 624 nM. `Cc1ccccc1C1CCN(C2CCC(NC(=O)/C=C/c3ccc(C(F)(F)F)cc3F)CC2)CC1` (configuration not stated) gave an XC50 of 902 nM. `CC(C)COc1ccc(Cl)cc1Cc1ccc(-c2nc3c(F)cccc3[nH]2)o1` gave an XC50 of 806 nM. In the case of `CNCCCN(C)C(=O)Oc1c(Br)c(C)nc(C)c1-c1ccc(Oc2ccc(OC(F)(F)F)cc2)cc1`, the XC50 was 386 nM. `CCC(C)NCc1c(O)ccc2c(CNC(C)CC)c(O)ccc12` (configuration not stated) was tested, and the XC50 was 592 nM. `N#Cc1cccc(C(=O)Nc2ccc(-c3cccc(CN4CCC(O)CC4)c3)cc2)c1` gave an XC50 of 995 nM. `CN1CCC(NCc2cccc(-c3ccc(S(=O)(=O)NCc4ccccc4)c(F)c3)c2)CC1` gave an XC50 of 325 nM. `N#CCOc1c(C2CCN(CCCCNC(=O)c3ccc(-c4ccc(C(F)(F)F)cc4)cc3)CC2)ccc2c1CCCC2` was tested, and the XC50 was 762 nM. `COc1cc2c(cc1S(=O)(=O)c1ccc(NC(=O)c3cccc(C(F)(F)F)c3)cc1)CCN(C)CC2` showed an XC50 of 1380 nM. In the case of `O=C(NCCCCN1CCC(c2ccc3c(c2O)CCCC3)CC1)c1ccc(NC(=O)c2ccc(Cl)cc2)cc1`, the XC50 was 243 nM. `O=C(/C=C/c1ccc(Cl)c(Cl)c1)NCCCCCN1CCC(NC(=O)Nc2ccc(Cl)c(C(F)(F)F)c2)CC1` showed an XC50 of 650 nM. Work on `N#Cc1ccc2c(c1)CN(CCC1CCC(NC(=O)c3cc4ccccc4cc3N)CC1)CC2` (configuration not stated) yielded an XC50 of 1040 nM. With `O=C(Nc1cccc(-c2ccc(CN3CCCC3)cc2)c1)c1ccc(Cl)cc1` the XC50 was 427 nM. `O=C(/C=C/c1ccc(C(F)(F)F)cc1)N1CCC(CCN2CCC(c3c[nH]c4ccccc34)CC2)CC1` showed an XC50 of 716 nM. Compound `Cc1cc(N[C@@H](Cc2ccccc2)C(=O)NCCc2ccccc2)nc(NCCOc2ccccc2)n1` has an XC50 of 1000 nM. For `CN(c1ccc(NC(=O)Nc2cccc(Cl)c2)cc1)c1ccnc(N)n1`, the XC50 was 628 nM. With `NC(=O)c1cccc(-n2ccc3cc(CNC4Cc5ccccc5C4)ccc32)c1` the XC50 was 1130 nM. `Cc1cc(Nc2ccccc2)nc(NCCOc2ccccc2)n1` gave an XC50 of 728 nM. With `COc1ccc(Cc2c(Cl)nc3nc(N)nc(N)c3c2C)c(OC)c1OC` the XC50 was 725 nM. `CC(C)CCn1c(Sc2ccc(C#N)c([N+](=O)[O-])c2)nnc1-c1ccc(N(C)C)cc1` was tested, and the XC50 was 786 nM. `Cc1cccc2nc(-c3cccc(-c4cccc(NC(=O)NCc5cccc(F)c5)c4)c3)[nH]c12` showed an XC50 of 453 nM. Work on `Cc1cccc2nc(-c3ccc(-c4ccc(NC(=O)CN5CCN(C)CC5)cc4)s3)[nH]c12` yielded an XC50 of 1020 nM. With `CN(C)CCNC(=O)[C@H](Cc1ccccc1)NC(=O)c1ccc(O)c(-c2ccc(Cl)c(Cl)c2)c1` the XC50 was 715 nM. `CN1CCN(c2ccc(Nc3nccc(-c4cnn5ncccc45)n3)cc2Cl)CC1` was tested, and the XC50 was 833 nM. In the case of `O=C(c1ccccc1)N(Cc1ccccc1-c1ccc(CNCCc2ccccc2)cc1)C1CCN(Cc2ccccc2)CC1`, the XC50 was 995 nM. `O=C(Nc1cccc(Oc2ccccc2)c1)N[C@H]1CCN(Cc2ccc(OCCCN3CCCCC3)cc2)C1` was tested, and the XC50 was 724 nM. For `COc1ccc(C2N=C(N)N=C(N)N2c2ccc(Cl)cc2)cc1OC` (configuration not stated), the XC50 was 1000 nM. In the case of `CC(C)c1sc(N2CCN(C)CC2)nc1C(=O)Nc1ccc(F)cc1C(F)(F)F`, the XC50 was 190 nM. Compound `CCc1ccc(C2CCN(CCCCNC(=O)c3ccc(-c4ccc(C(F)(F)F)cc4)cc3)CC2)c(OCCO)c1` has an XC50 of 410 nM. With `Cc1cc(-c2ccnc(Nc3cccc(C#N)c3)n2)cc(C)c1O` the XC50 was 924 nM. `O=C(Nc1ccc(-c2cccc(-c3nc4cc(F)ccc4[nH]3)c2)cc1)Nc1ccsc1` gave an XC50 of 693 nM. Work on `Cn1cnc(CCNC(=O)c2cccc(-c3ccc(-c4nc5cc(F)ccc5[nH]4)cc3)c2)c1` yielded an XC50 of 941 nM. `COc1ccc2nccc([C@@H](O)CN3CCC(NCCc4c[nH]c5ccccc45)CC3)c2c1` showed an XC50 of 210 nM. `CN(C)CCOc1cc(NC(=O)/C=C/c2cccc3ccccc23)ccc1I` was tested, and the XC50 was 1260 nM. With `CN1CCN(CC(=O)Nc2cccc(-c3ccc(-c4nc5cc(C(F)(F)F)ccc5[nH]4)s3)c2)CC1` the XC50 was 309 nM. For `c1ccc2c3c(ccc2c1)Sc1c(ccc2ccccc12)N3`, the XC50 was 1070 nM. `Cn1ccnc1CNC(=O)c1ccc(-c2ccc(-c3nc4cc(C(F)(F)F)ccc4[nH]3)s2)cc1` was tested, and the XC50 was 698 nM. `CCOC(=O)NC1=NC(C)(C)N(OCCCOc2ccc(C)cc2C)C(NC(=O)OCC)=N1` gave an XC50 of 126 nM. `N#Cc1ccc2c(c1)CCN(CCC1CCC(NC(=O)c3ccc(-c4ccccn4)s3)CC1)CC2` (configuration not stated) showed an XC50 of 1010 nM. `CN(C)CCNc1cc(-c2ccc3ccccc3c2)nc2ccccc12` gave an XC50 of 350 nM. `COc1ccccc1CCNc1nc(C)cc(NCCC(=O)Nc2ccccc2)n1` showed an XC50 of 806 nM. For `Cc1ccc(N2CCN(CCCCNC(=O)c3ccc(NC(=O)c4ccc(Cl)cc4)cc3)CC2)c(C)c1`, the XC50 was 764 nM. With `Cc1ccccc1C1CCN(C2CCC(NC(=O)c3csc(-c4cccc(Cl)c4)n3)CC2)CC1` (configuration not stated) the XC50 was 1150 nM. `CC(C)COc1ccc(Cl)cc1Cc1nc(-c2nc3ccc(CN4CCCC4)cc3[nH]2)co1` was tested, and the XC50 was 727 nM. `CCOC(=O)c1cn(CC)c2cc(N3CCCCCC3)c(F)cc2c1=O` was tested, and the XC50 was 413 nM. Work on `COc1ccccc1N1CCN(Cc2c(O)ccc3cc(Br)ccc23)CC1` yielded an XC50 of 1150 nM. Compound `Oc1cccc(/C=N/Nc2ccnc3cc(Cl)ccc23)c1` has an XC50 of 728 nM. `Fc1ccc(Nc2ccnc3cc(-c4ccc(CNCCN5CCOCC5)o4)ccc23)c(Cl)c1` gave an XC50 of 186 nM. `COc1ccc(Cc2c(N)nc3nc(N)nc(N)c3c2C)cc1` gave an XC50 of 189 nM. `Oc1ccc(CCNc2nc(NCc3ccccc3-c3ccc(C(F)(F)F)cc3)nc(NC3CCNCC3)n2)cc1` was tested, and the XC50 was 924 nM. `Cn1c2c(c3ccccc31)CN(CCC1(c3ccc(Cl)c(Cl)c3)CN(C(=O)Cc3ccccc3)CCO1)CC2` (configuration not stated) showed an XC50 of 358 nM. `N=c1c2c(n(Cc3ccc(Cl)cc3Cl)c3c1CCC3)CCCC2` was tested, and the XC50 was 350 nM. Work on `COCn1ncc2cc(-c3cccc(NC(=O)c4csc(NC(C)=O)n4)c3)ccc21` yielded an XC50 of 987 nM. `CC(NC(C)(C)C)C(O)c1ccc(Cl)c(C(F)(F)F)c1` (configuration not stated) gave an XC50 of 742 nM. In the case of `COc1cc(N(C)Cc2cnc3nc(N)nc(N)c3n2)cc(OC)c1OC`, the XC50 was 435 nM. For `CC(C)CNCc1ccc(-c2cccc(CN(C(=O)Nc3ccccc3)C3CCN(Cc4ccccc4)CC3)c2)cc1`, the XC50 was 410 nM. For `O=c1cc(NCCCNCc2sc(Br)nc2Br)[nH]c2ccccc12`, the XC50 was 866 nM. In the case of `O=[N+]([O-])c1ccc2c(c1)c1ccccc1n2Cc1ccccc1O`, the XC50 was 1110 nM. Work on `CC(C)[C@H](NCC(=O)c1ccccc1)C(=O)O` yielded an XC50 of 783 nM. In the case of `O=C(NC1CCCCC1)N(Cc1ccc(-c2cccc(CNCc3ccc4c(c3)OCO4)c2)cc1)C1CCN(Cc2ccccc2)CC1`, the XC50 was 688 nM. In the case of `Cn1cncc1C(=O)NC1CCN(c2ccnc(Nc3ccc(F)cc3)n2)C1` (configuration not stated), the XC50 was 832 nM. For `CCCN(CC(=O)NCCc1ccccc1)c1ccc(C#N)c2ccccc12`, the XC50 was 500 nM. For `CC(=O)Nc1ccc(CN2CCC(CNC(=O)c3cc(-c4cccc(C(F)(F)F)c4)cs3)C2)cc1` (configuration not stated), the XC50 was 1100 nM. `Nc1ccc(-c2csc(Nc3ccncc3)n2)cc1` showed an XC50 of 939 nM. For `CCOC(=O)CCc1cc(F)c(F)c(OC[C@H](O)CNC(C)(C)C(O)c2ccc3ccccc3c2)c1` (some centres not stated), the XC50 was 859 nM. In the case of `Cc1[nH]c2ccccc2c1C1CCN(CCCCNC(=O)c2ccc(-c3ccc(C#N)cc3)cc2)CC1`, the XC50 was 704 nM. Compound `Cc1ccc2nc3c(cc(C(=O)NCCc4ccccc4)c(=N)n3CCCOC(C)C)c(=O)n2c1` has an XC50 of 892 nM. Work on `COc1cccc(C2(NC[C@@H](O)[C@H](Cc3ccccc3)NC(=O)c3ccccc3)CCCCC2)c1` yielded an XC50 of 729 nM. In the case of `Oc1ccc2[nH]cc(C3CCN(CCCNCc4ccc(-c5ccccc5)cc4)CC3)c2c1`, the XC50 was 725 nM. In the case of `Cc1ccc(O)c(Nc2c3c(c(C#N)c4nc5ccccc5n24)CCC3)c1`, the XC50 was 1250 nM. For `CC(=O)Nc1ccc(CNC2Cc3ccc(-c4ccc(Cl)c(Cl)c4)cc3C2)cc1` (configuration not stated), the XC50 was 998 nM. With `CN1CCN(Cc2ccc(-c3cc4nccc(Nc5ccc(Oc6ccccc6)cc5)c4cc3Cl)o2)CC1` the XC50 was 979 nM. Work on `CCOc1c(CNCCCNc2nc3ccccc3[nH]2)cc(Br)cc1OC` yielded an XC50 of 557 nM. With `CCC(C)(C)C1CCc2nc(N)nc(N)c2C1` (configuration not stated) the XC50 was 6.38 nM. With `CC(=O)Nc1ccc(-c2nc3ccc(-c4nc5ccc(NC(C)=O)cc5[nH]4)cc3[nH]2)cc1` the XC50 was 242 nM. Work on `CC1=CC(=O)[C@@H](O)[C@]2(C)[C@H]3[C@@]4(O)OC[C@@]35[C@@H](C[C@@H]12)OC(=O)C[C@H]5[C@@H](C)[C@H]4O` [CHAPARRINONE] yielded an XC50 of 347 nM. Work on `COc1cc(NC(=O)N2CCOC(CCN3CCC(c4ccccc4)CC3)(c3ccc(Cl)c(Cl)c3)C2)cc(OC)c1` (configuration not stated) yielded an XC50 of 287 nM. `Cn1c(/C=C/C(=O)NC2CCC(CCN3CCc4ccc(C#N)cc4CC3)CC2)cc2ccccc21` (configuration not stated) gave an XC50 of 733 nM. In the case of `O=C(/C=C/c1ccsc1)N1CCC(CCN2CCC(c3c[nH]c4ccccc34)CC2)CC1`, the XC50 was 905 nM. For `Cc1n[nH]c2ccc(-c3cc(OC[C@@H](N)Cc4ccccc4)cnc3-c3cc4ccccc4s3)cc12`, the XC50 was 810 nM. `CCOC(=O)c1sc(C(C)Nc2ccccc2)nc1-c1ccccc1` (configuration not stated) gave an XC50 of 333 nM. In the case of `Cc1cc(NC(=O)c2sc3ccccc3c2O)no1`, the XC50 was 809 nM. With `COc1ccc(C2N=C(N)N=C(N)N2OCc2ccccc2)cc1OC` (configuration not stated) the XC50 was 133 nM. `COc1ccc2ncc(F)c(CCN3CC[C@H](NC(=O)c4ccc5c(n4)NC(=O)CS5)[C@H](O)C3)c2n1` was tested, and the XC50 was 947 nM. `O=C(Nc1cccc(CN2CCN(C(=O)c3cccc(Cl)c3)CC2)c1)c1cccs1` was tested, and the XC50 was 184 nM. `O=C(NCCNc1ccnc(NCc2ccc(F)cc2)n1)c1cc2ccccc2s1` showed an XC50 of 695 nM. Work on `COc1ccc(N(c2nc(-c3cc(Cl)ccc3Cl)cs2)C2CCNC2)cc1` (configuration not stated) yielded an XC50 of 873 nM. `Cc1ccc(Nc2nc3cc(Nc4ccnc(Nc5cccc(CS(C)(=O)=O)c5)n4)ccc3o2)cc1` showed an XC50 of 923 nM. `Fc1cc(CN2CCCC2)ccc1OCCCN1CCN(c2cccc(Cl)c2Cl)CC1` was tested, and the XC50 was 1040 nM. Compound `COc1ccc(Nc2nc(NC3CCN(C)CC3)cc(-c3ccc(OC)cc3)n2)cc1` has an XC50 of 545 nM. Work on `CC[C@H]1CN(Cc2ccccc2Br)CC[C@H]1CCCc1ccnc2ccc(O)cc12` yielded an XC50 of 1000 nM. For `N#Cc1ccc(N2CCN(Cc3ccc(-c4ccc(-c5nc6cc(C(F)(F)F)ccc6[nH]5)s4)cc3)CC2)nc1`, the XC50 was 814 nM. `Cc1cc(-c2cnc(N)c(-c3ccc(N4CCN(C)CC4)nc3)c2)cc(C)c1O` was tested, and the XC50 was 1400 nM.
